Source: publication PMC7204872, “The Biosynthesis of the Benzoxazole in Nataxazole Proceeds via an Unstable Ester and has Synthetic Utility” (Angewandte Chemie (International Ed. in English), 2020)

Key:
[1] = target: T1, NatL2 (Streptomyces sp. Tu 6176, UniProt A0A022MRT4); test: X-ray crystallography (soaked crystal); assay type: binding
T1 construct: N-terminal hexahistidine-tagged, expressed in E. coli; homodimer, structural Zn2+; residues 5-436 traced (C-terminal extension 405-436)
T1 sequence (A0A022MRT4 1-436): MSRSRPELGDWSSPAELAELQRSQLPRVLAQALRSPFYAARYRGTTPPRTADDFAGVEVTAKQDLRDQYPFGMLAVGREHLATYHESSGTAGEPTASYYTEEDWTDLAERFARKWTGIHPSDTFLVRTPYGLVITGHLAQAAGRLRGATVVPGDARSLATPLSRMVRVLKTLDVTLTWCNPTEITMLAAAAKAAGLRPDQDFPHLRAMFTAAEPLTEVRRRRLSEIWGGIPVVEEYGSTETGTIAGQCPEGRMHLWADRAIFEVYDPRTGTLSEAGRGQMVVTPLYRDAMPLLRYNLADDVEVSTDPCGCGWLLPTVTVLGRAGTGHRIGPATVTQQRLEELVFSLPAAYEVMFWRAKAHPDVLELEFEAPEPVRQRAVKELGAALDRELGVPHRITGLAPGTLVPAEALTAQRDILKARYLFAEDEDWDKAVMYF

[2] = target: T1, NatL2; test: X-ray crystallography, […] Å; assay type: binding; details: crystallised in the presence of ATP; density modelled as AMP; Lys418 from other monomer

SMILES: Nc1ncnc2c1ncn2[C@@H]1O[C@H](COP(=O)(O)OP(=O)(O)NP(=O)(O)O)[C@@H](O)[C@H]1O [AMPPNP]
- X-ray crystallography (soaked crystal) ([1]; nucleotide site, binary complex and ternary with 3-HAA, no Mg2+ density): These crystals were soaked with AMPPNP and the resulting complex was essentially identical

SMILES: Nc1ncnc2c1ncn2[C@@H]1O[C@H](COP(=O)(O)O)[C@@H](O)[C@H]1O [AMP]
- X-ray crystallography, 1.9 Å [2]: Residual electron density in both monomers was best modelled as AMP not ATP

SMILES: O=C(O)c1ccccc1O [SA]
- X-ray crystallography (soaked crystal) ([1]; soak of AMP:3-HAA crystals, two SA molecules in subunit A, no AMP, SA1 in 3-HAA1 pocket, SA2 in second substrate pocket, not turned over): In subunit A, two molecules of SA are bound but no AMP
